Source: patent US10590129B2 (Incozen Therapeutics Pvt. Ltd., priority 2010, dated 2020)

Key:
MKN-45 cells = assay: Inhibition of MKN-45 proliferation (MTT); assay type: cell-based, human; conditions: for inhibition at 1 µM / inhibition at 0.1 µM: Homo sapiens, MKN-45, MKN-45 proliferation; for inhibition at 0.1 µM / Inhibition (% Inhibition of MKN-45 proliferation): 0.1 μM
In short: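 High-Met human gastric adenocarcinoma MKN-45 cells plated in complete growth medium, compounds added next day and viability read 3 days later by MTT dye reduction.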

melting point	Structure (SMILES)	inhibition at 1 µM (MKN-45 cells; 1 μM)	inhibition at 0.1 µM (MKN-45 cells)	Inhibition (% Inhibition of MKN-45 proliferation) (MKN-45 cells; MKN-45 proliferation)	% inhibition @ 1 uM (MKN-45 cells; MKN-45 proliferation, 1 μM)	inhibition at 1 µM (MKN-45 cells; 1 μM, number printed instead of class)
122 to 125 °C	FC(F)Oc1cccc(-c2ccc3nnn(Cc4ccc5ncccc5c4)c3n2)c1 [Ex 25, 6-((5-(3-(difluoromethoxy)phenyl)-3H-[1,2,3]triazolo[4,5-b]pyridin-3-yl)methyl) quinoline]	< 25%				
217 to 219 °C	O=C(Nc1ccncc1)c1ccc(-c2ccc3nnn(Cc4ccc5ncccc5c4)c3n2)cc1F [Ex 47, 2-Fluoro-N-(pyridin-4-yl)-4-(3-(quinolin-6-ylmethyl)-3H-[1,2,3]triazolo[4,5-b]pyridin-5-yl)benzamide]	50 to 75%	< 25%			
163 to 165 °C	O=C(NCc1ccccc1)c1ccc(-c2ccc3nnn(Cc4ccc5ncccc5c4)c3n2)cc1F [Ex 48, N-Benzyl-2-fluoro-4-(3-(quinolin-6-ylmethyl)-3H-[1,2,3]triazolo[4,5-b]pyridin-5-yl)benzamide]	75 to 100%	< 25%			
163 to 165 °C	CN(C)C(=O)c1ccc(-c2ccc3nnn(Cc4ccc5ncccc5c4)c3n2)cc1F [Ex 49, 2-Fluoro-N,N-dimethyl-4-(3-(quinolin-6-ylmethyl)-3H-[1,2,3]triazolo[4,5-b]pyridin-5-yl)benzamide]	25 to 50%	< 25%			
252 to 254 °C	O=C(O)CNC(=O)c1ccc(-c2ccc3nnn(Cc4ccc5ncccc5c4)c3n2)cc1F [Ex 51, 2-(2-Fluoro-4-(3-(quinolin-6-ylmethyl)-3H-[1,2,3]triazolo[4,5-b]pyridin-5-yl)benzamido)acetic acid]	< 25%	< 25%			
145 to 147 °C	Fc1cccc(-c2ccc3nnn(Cc4ccc5ncccc5c4)c3n2)c1 [Ex 56, 6-((5-(3-Fluorophenyl)-3H-[1,2,3]triazolo[4,5-b]pyridin-3-yl)methyl)quinoline]	< 25%	< 25%			
201 to 202 °C	CON(C)C(=O)c1ccc(-c2ccc3nnn(Cc4ccc5ncccc5c4)c3n2)cc1F.Cl [Ex 59, 2-Fluoro-N-methoxy-N-methyl-4-(3-(quinolin-6-ylmethyl)-3H-[1,2,3]triazolo[4,5-b]pyridin-5-yl)benzamide hydrochloride]	50 to 75%	< 25%			
210 to 212 °C	CC(C)(C)NC(=O)c1ccc(-c2ccc3nnn(Cc4ccc5ncccc5c4)c3n2)cc1F [Ex 60, N-tert-Butyl-2-fluoro-4-(3-(quinolin-6-ylmethyl)-3H-[1,2,3]triazolo[4,5-b]pyridin-5-yl) benzamide]	< 25%	< 25%			
162 to 164 °C	C=CCNC(=O)c1ccc(-c2ccc3nnn(Cc4ccc5ncccc5c4)c3n2)cc1F [Ex 61, N-Allyl-2-fluoro-4-(3-(quinolin-6-ylmethyl)-3H-[1,2,3]triazolo[4,5-b]pyridin-5-yl) benzamide]	75 to 100%	75 to 100%			
197 to 199 °C	CONC(=O)c1ccc(-c2ccc3nnn(Cc4ccc5ncccc5c4)c3n2)cc1F [Ex 62, 2-Fluoro-N-methoxy-4-(3-(quinolin-6-ylmethyl)-3H-[1,2,3]triazolo[4,5-b]pyridin-5-yl)benzamide]			A (A = ≥75 to 100%)	A (A = ≥75 to 100%)	
220 to 223 °C	CC(=O)Nc1ccc(-c2ccc3nnn(Cc4ccc5ncccc5c4)c3n2)cc1 [Ex 63, N-(4-(3-(quinolin-6-ylmethyl)-3H-[1,2,3]triazolo[4,5-b]pyridin-5-yl)phenyl)acetamide]	50 to 75%	< 25%			
190 to 193 °C	Nc1ccc(-c2ccc3nnn(Cc4ccc5ncccc5c4)c3n2)cc1 [Ex 64, 4-(3-(quinolin-6-ylmethyl)-3H-[1,2,3]triazolo[4,5-b]pyridin-5-yl)aniline]	25 to 50%				
149 to 152 °C	COc1ccc(-c2ccc3nnn(Cc4ccc5ncccc5c4)c3n2)cc1OC [Ex 65, 6-((5-(3,4-Dimethoxyphenyl)-3H-[1,2,3]triazolo[4,5-b]pyridin-3-yl)methyl)quinoline]	< 25%	< 25%			
187 to 190 °C	COc1ccc(-c2ccc3nnn(Cc4ccc5ncccc5c4)c3n2)cc1F [Ex 66, 6-((5-(3-Fluoro-4-methoxyphenyl)-3H-[1,2,3]triazolo[4,5-b]pyridin-3-yl)methyl)quinoline]	25 to 50%	< 25%			
153 to 156 °C	Fc1ccc(-c2ccc3nnn(Cc4ccc5ncccc5c4)c3n2)cc1 [Ex 67, 6-((5-(4-Fluorophenyl)-3H-[1,2,3]triazolo[4,5-b]pyridin-3-yl)methyl)quinoline]		< 25%			13.8%
164 to 166 °C	Fc1ccccc1-c1ccc2nnn(Cc3ccc4ncccc4c3)c2n1 [Ex 68, 6-((5-(2-Fluorophenyl)-3H-[1,2,3]triazolo[4,5-b]pyridin-3-yl)methyl)quinoline]	< 25%	< 25%			
198 to 201 °C	CC(=O)Nc1cccc(-c2ccc3nnn(Cc4ccc5ncccc5c4)c3n2)c1 [Ex 69, N-(3-(3-(quinolin-6-ylmethyl)-3H-[1,2,3]triazolo[4,5-b]pyridin-5-yl)phenyl)acetamide]	< 25%	< 25%			
151 to 154 °C	FC(F)(F)COc1cccc(-c2ccc3nnn(Cc4ccc5ncccc5c4)c3n2)c1 [Ex 70, 6-((5-(3-(2,2,2-Trifluoroethoxy)phenyl)-3H-[1,2,3]triazolo[4,5-b]pyridin-3-yl)methyl)quinoline]	< 25%	< 25%			
187 to 189 °C	Nc1cccc(-c2ccc3nnn(Cc4ccc5ncccc5c4)c3n2)c1 [Ex 71, 3-(3-(quinolin-6-ylmethyl)-3H-[1,2,3]triazolo[4,5-b]pyridin-5-yl)aniline]	25 to 50%	< 25%			
148 to 150 °C	CN(C)CCCNC(=O)c1ccc(-c2ccc3nnn(Cc4ccc5ncccc5c4)c3n2)cc1F [Ex 72, N-(3-(dimethylamino)propyl)-2-fluoro-4-(3-(quinolin-6-ylmethyl)-3H-[1,2,3]triazolo[4,5-b]pyridin-5-yl)benzamide]			D (D = <25%)		
128 to 130 °C	CC(C)Oc1ccc(-c2ccc3nnn(Cc4ccc5ncccc5c4)c3n2)cc1F [Ex 75, 6-((5-(3-Fluoro-4-isopropoxyphenyl)-3H-[1,2,3]triazolo[4,5-b]pyridin-3-yl)methyl)quinoline]	< 25%	< 25%			
163 to 165 °C	CN(C)C(=O)CCNC(=O)c1ccc(-c2ccc3nnn(Cc4ccc5ncccc5c4)c3n2)cc1F [Ex 76, N-(3-(dimethylamino)-3-oxopropyl)-2-fluoro-4-(3-(quinolin-6-ylmethyl)-3H-[1,2,3]triazolo[4,5-b]pyridin-5-yl)benzamide]	50 to 75%	75 to 100%			
177 to 179 °C	CN(C)C(=O)CNC(=O)c1ccc(-c2ccc3nnn(Cc4ccc5ncccc5c4)c3n2)cc1F [Ex 77, N-(2-(dimethylamino)-2-oxoethyl)-2-fluoro-4-(3-(quinolin-6-ylmethyl)-3H-[1,2,3]triazolo[4,5-b]pyridin-5-yl)benzamide]	50 to 75%	50 to 75%			
175 to 177 °C	O=C(NCC(=O)N1CCCC1)c1ccc(-c2ccc3nnn(Cc4ccc5ncccc5c4)c3n2)cc1F [Ex 78, 2-Fluoro-N-(2-oxo-2-(pyrrolidin-1-yl)ethyl)-4-(3-(quinolin-6-ylmethyl)-3H-[1,2,3]triazolo[4,5-b]pyridin-5-yl)benzamide]	50 to 75%	50 to 75%			
160 to 162 °C	Fc1cc(-c2ccc3nnn(Cc4ccc5ncccc5c4)c3n2)ccc1OCC1CC1 [Ex 79, 6-((5-(4-(Cyclopropylmethoxy)-3-fluorophenyl)-3H-[1,2,3]triazolo[4,5-b]pyridin-3-yl)methyl)quinoline]	50 to 75%	< 25%			
102 to 105 °C	CN(C)CCCOc1ccc(-c2ccc3nnn(Cc4ccc5ncccc5c4)c3n2)cc1F [Ex 81, 3-(2-Fluoro-4-(3-(quinolin-6-ylmethyl)-3H-[1,2,3]triazolo[4,5-b]pyridin-5-yl)phenoxy)-N,N-dimethylpropan-1-amine]	75 to 100%	50 to 75%			
165 to 167 °C	Fc1cc(-c2ccc3nnn(Cc4ccc5ncccc5c4)c3n2)ccc1OC1CCOCC1 [Ex 85, 6-((5-(3-Fluoro-4-(tetrahydro-2H-pyran-4-yloxy)phenyl)-3H-[1,2,3]triazolo[4,5-b]pyridin-3-yl)methyl)quinoline]	75 to 100%	< 25%			
122 to 124 °C	COCCOc1ccc(-c2ccc3nnn(Cc4ccc5ncccc5c4)c3n2)cc1F [Ex 86, 6-((5-(3-Fluoro-4-(2-methoxyethoxy)phenyl)-3H-[1,2,3]triazolo[4,5-b]pyridin-3-yl)methyl)quinoline]	75 to 100%	< 25%			
157 to 159 °C	CCCNC(=O)c1ccc(-c2ccc3nnn(Cc4ccc5ncccc5c4)c3n2)cc1F [Ex 87, 2-Fluoro-N-propyl-4-(3-(quinolin-6-ylmethyl)-3H-[1,2,3]triazolo[4,5-b]pyridin-5-yl)benzamide]	< 25%	75 to 100%			

Structure (SMILES)	melting point	inhibition at 1 µM (MKN-45 cells; 1 μM)	inhibition at 0.1 µM (MKN-45 cells)	Inhibition (% Inhibition of MKN-45 proliferation) (MKN-45 cells; MKN-45 proliferation)	% inhibition @ 1 uM (MKN-45 cells; MKN-45 proliferation, 1 μM)	inhibition at 1 µM (MKN-45 cells; 1 μM, number printed instead of class)
CC(C)COc1ccc(-c2ccc3nnn(Cc4ccc5ncccc5c4)c3n2)cc1F [Ex 80, 6-((5-(3-Fluoro-4-isobutoxyphenyl)-3H-[1,2,3]triazolo[4,5-b]pyridin-3-yl)methyl)quinoline]	115 to 157 °C	25 to 50%	< 25%			
